# Values joined by “and” are separate entries in the source; they are usually repeats but may differ in a detail not shown here. Identical values can stand only once. Like-named read-outs stand apart in the source and are kept apart here.
# Assays:
# [1] = tested on: S. aureus strain DSMZ 346; test: MIC determination / bacterial count in CaCO3 slurry with or without lithium ions; type: cell-based; details: for MIC ratio (MICwithout Li/MICLi): S. aureus; for MIC: Staphylococcus aureus, DSMZ346, S. aureus, read-out: MIC active/aequeous; for bacterial count: S. aureus DSMZ 346; for antimicrobial effect of lithium ions provided alone: S. aureus strain
# Method: (§1) When not otherwise indicated, the quoted bacterial counts (values are in cfu/plate) in the Tables here below are determined after 2 days following plate-out and incubation at 30° C. The counting method was as follows. The aqueous preparations were stirred well with a cotton swap (e.g. Applimed SA, No. 1102245); the excess aqueous preparation was removed by dipping it gently to the side of the aqueous preparation container, leaving approximately 200 mg of aqueous preparation on the swap. […] TSA plates were then incubated for 48 h at 30° C. Colony forming units (cfu) were then counted and reported as cfu/plate. Counts from 100 to 999 cfu per plate are reported as ≥100 cfu/plate. Counts of 1000 cfu and above per plate are reported as ≥1000 cfu/plate. Yeast and moulds were counted as described for bacteria with the following exceptions, a) Sabouraud Dextrose Agar (SDA) containing Chloramphenicol (e.g. heipha Dr. Miller GmbH, No. 1460030020) were used instead of TSA, b) SDA plates were incubated at 25° for 5 days and c) cfu were counted and reported after 48 h and 5 days of incubation. Yeast and moulds counts from 20 to 99 cfu per plate are reported as […]. Yeast and moulds counts of 100 cfu and above per plate are reported as >100 cfu/plate.
# (§2) For determining the MIC, the tested microorganism, i.e. the strain of bacteria and/or strain of yeast and/or strain of mould, were freshly grown until the end of the logarithmic growth phase according to the requirements of the individual species to a density of approximately 10^7-10^9 cells/ml.
# (§3) For example, fresh bacteria cultures of the bacteria E. coli, e.g. E. coli ATCC 11229, and S. aureus, e.g. S. aureus strains DSMZ 346, were prepared by inoculation of 3 ml liquid growth media (tryptic soy broth, e.g. Fluka Cat. No. 22092) from a stock culture and incubation for 16 to 20 h at 30° C. with agitation at 150 rotations per minutes (rpm) leading to a cell density of approximately 2×10^8 cells/ml. Fresh cultures of resistant bacteria, adapted to the conditions in biocide containing CaCO3 slurries, were prepared by inoculation of 50 g 75 wt.-% solid content CaCO3 slurry from a stock culture and incubated for 14 to 28 days at 30° C. without agitation.
# (§4) Lithium ions were added to the aqueous preparation (e.g. CaCO3 slurry) by the addition of a water soluble lithium salt. For example to 50 g CaCO3 slurry with a solid content of 75% (w/w) 1.177 ml of a 74 g/Li2CO3 suspension was added and mixed well leading to a lithium ion concentration of 172 mM or 1205 ppm in the water phase. As another example to 50 g CaCO3 slurry with a solid content of 75 wt.-% (w/w) 0.04 ml of a 292 g/L Li3Citrate (2M) solution was added and mixed well leading to a lithium ion concentration of 19 mM or 135 ppm in the water phase.
# (§5) The biocide to be tested was added to the aqueous preparation (e.g. CaCO3 slurry with or without lithium ions) in increasing concentrations starting from 0 ppm (without biocide). The concentrations ranged from concentrations higher than recommended by the supplier, to very low amounts (as low as 1 ppm or lower). Of each biocide concentration a 3 ml sample of aqueous preparation was combined with 20 μl fresh bacterial culture.
# (§6) All samples were incubated at 30° C. for 24 h. After incubation colony forming units (cfu) per plate (cfu/plate) were determined as described above under bacterial count.
# (§7) The MIC for bacteria is defined as the lowest concentration of biocide in the presence or absence of lithium ion amongst all samples tested, where the bacterial concentration dropped below 100 cfu/plate. The MIC for yeast and mould is defined as the lowest concentration of biocide in the presence or absence of lithium ion amongst all samples tested, where the microbial concentration dropped below 20 cfu/plate.
# E. coli strain ATCC11229 = test: as above; type: cell-based; details: for MIC ratio (MICwithout Li/MICLi): E. coli, Li2CO3
# Method: as §1, §2, §3, §4, §5, §6, §7
# bacterial strain rOmyAK = test: microbe, parasite or virus in culture; type: cell-based, Pseudomonas mendocina
# Method: as §1, §2, §3, §4, §5, §6, §7
compound,measurement,setting,value
O=CCCCC=O [Glutaraldehyde],MIC ratio (MICwithout Li/MICLi),"[1]; Li^+ 197 mM (1380 ppm), Li2CO3",>10
same,MIC,"[1]; Li^+ 197 mM (1380 ppm), Li2CO3",40 µM and 3.54 µg/mL
same,MIC,[1]; no Li^+,> 350 µM and > 35.4 µg/mL
CCCCCCCCCCCCN=C(N)N.Cl [Guanidinedodecyl monochloride],MIC ratio (MICwithout Li/MICLi),E. coli strain ATCC11229; Li^+ 197 mM (1380 ppm),>2.4
O=S(=O)(C(Cl)(Cl)Cl)C(Cl)(Cl)Cl [Hexachlorodimethyl sulfone],MIC ratio (MICwithout Li/MICLi),E. coli strain ATCC11229; Li^+ 197 mM (1380 ppm),1.67
same,MIC ratio (MICwithout Li/MICLi),"[1]; Li^+ 329 mM (2305 ppm), Li2CO3",1.33
[Li+] [Li^+],antimicrobial effect of lithium ions provided alone,"bacterial strain rOmyAK; rOmy AK strain, lithium ions via Li2CO3, no biocide",no antimicrobial effect
same,bacterial count,"bacterial strain rOmyAK; rOmy AK, no MIT, 329 mM Li^+ (Li2CO3) alone",≥1000 cfu/plate
same,bacterial count,"E. coli strain ATCC11229; E. coli ATCC11229, no 4-chloro-3-methylphenol, 197 mM Li^+ (Li2CO3) alone",≥100 cfu/plate
same,antimicrobial effect of lithium ions provided alone,"E. coli strain ATCC11229; E. coli strain, lithium ions via Li2CO3, no biocide",no antimicrobial effect
same,bacterial count,"[1]; no CMIT/MIT, 197 mM Li^+ (Li2CO3) alone",≥1000 cfu/plate
same,bacterial count,"[1]; no Sodium pyrithione, 96 mM Li^+ (lithium citrate) alone",≥1000 cfu/plate
same,antimicrobial effect of lithium ions provided alone,"[1]; lithium ions via Li2CO3, no biocide",no antimicrobial effect
same,antimicrobial effect of lithium ions provided alone,"[1]; lithium ions via lithium citrate, no biocide",no antimicrobial effect
N#CSCSC#N [Methylene bis(thiocyanate)],MIC ratio (MICwithout Li/MICLi),"[1]; Li^+ 329 mM (2305 ppm), Li2CO3",4.04
[Na+].[O-][n+]1ccccc1[S-] [Sodium pyrithione],MIC ratio (MICwithout Li/MICLi),E. coli strain ATCC11229; Li^+ 197 mM (1380 ppm),3
Polyethoxyethoxyethylguanidinium hexachloride,MIC ratio (MICwithout Li/MICLi),E. coli strain ATCC11229; Li^+ 197 mM (1380 ppm),>1.33
same,MIC ratio (MICwithout Li/MICLi),E. coli strain ATCC11229; Li^+ 423 mM (2964 ppm),>8

# From patent publication US11553718B2, “Mic reduction with lithium ions” (priority 2014, dated 2023)
